# Results published in the OligoGym collection.
# “And” between values parts separate entries of the source, which are not always exact repeats. Equal entries are not always repeated. After the bases stand the sugars from the 5' end (letter, count) and the backbone: PS all phosphorothioate, else s phosphorothioate and o phosphodiester by linkage. Methylation of C is not given here. e = 2'-O-(2-methoxyethyl) (MOE); d = 2'-deoxy (DNA)
# Biological target: DGAT2
# Conditions: ASO
Sequence,"target mRNA inhibition (HepG2, 0.12 µM)","target mRNA inhibition (HepG2, 2.5 µM)","target mRNA inhibition (HepG2, 10 µM)","target mRNA inhibition (HepG2, 20 µM)"
"AAATAACCCACAGACACCCA (sugars e5 d10 e5, PS)",10%,52% and 50% and 46%,96% and 85%,97%
"AACCACAGCGATAATCACAC (sugars e5 d10 e5, PS)",,66%,91%,
"AAGATATAGTTCCTGGTGGT (sugars e5 d10 e5, PS)",41%,,,
"AAGGAAAACTTAGGCATGCT (sugars e5 d10 e5, PS)",,63%,80%,
"AAGGAGTTTGTGTTTCCCAT (sugars e5 d10 e5, PS)",,71% and 65%,91% and 85%,
"AAGGCCGTATGCCTGGGAAC (sugars e5 d10 e5, PS)",25%,,,
"AATAGTCTATGGTGTCCCGG (sugars e5 d10 e5, PS)",63%,,,
"AATCCAACCCTTGTCACTCT (sugars e5 d10 e5, PS)",,33%,94%,
"AATCTGTGTGACCTTGGGCA (sugars e5 d10 e5, PS)",,87% and 82%,84% and 93%,
"AATGGAGTGACAGGGCAGGA (sugars e5 d10 e5, PS)",,54%,81%,
"AATGGGAATGGTATCGCACT (sugars e5 d10 e5, PS)",,58%,89%,
"ACAAAGTCTATCAGGATGCA (sugars e5 d10 e5, PS)",,53%,91%,
"ACAACTCTCTTGTTGGGAGG (sugars e5 d10 e5, PS)",,64%,84%,
"ACAATTCCTGGATAACAAGG (sugars e5 d10 e5, PS)",41%,,,
"ACAGAAAAGTGAGGCTTGGG (sugars e5 d10 e5, PS)",40%,,,
"ACAGGAAGCCTGGTGACTGC (sugars e5 d10 e5, PS)",54%,,,
"ACAGGGCAGATACCTCCAGA (sugars e5 d10 e5, PS)",58%,,,
"ACCACAGCGATAATCAC (sugars e3 d10 e4, PS)",,50%,75%,
"ACCAGCCAGGCCCAGACCCA (sugars e5 d10 e5, PS)",,21%,43%,
"ACCAGCTGCAAGGATGACCT (sugars e5 d10 e5, PS)",49%,,,
"ACCCACTGGAGCACTGAGAT (sugars e2 d13 e5, PS)",52%,,,
"ACCCAGAGATGGTGATAAGG (sugars e5 d10 e5, PS)",53%,,,

Sequence,"target mRNA inhibition (HepG2, 0.12 µM)","target mRNA inhibition (HepG2, 2.5 µM)","target mRNA inhibition (HepG2, 10 µM)","target mRNA inhibition (HepG2, 20 µM)"
"ACCCATCGGCCCCAGGAGCC (sugars e5 d10 e5, PS)",59%,,,
"ACCTGGGTTTTTGTGTATTC (sugars e5 d10 e5, PS)",,86% and 87%,86% and 90%,
"ACTTCATTCTCTCCAAAGGA (sugars e5 d10 e5, PS)",45%,,,
"AGAAAAACCAGTTACTCCAC (sugars e5 d10 e5, PS)",4%,,,
"AGAAGGCACCCAGGCCCATG (sugars e5 d10 e5, PS)",38%,,,
"AGAGCACAGCGATGAGCCAG (sugars e5 d10 e5, PS)",,52%,85%,
"AGAGCCAGCACACAGCTATG (sugars e5 d10 e5, PS)",20%,,,
"AGAGCTTCACCAGGGCCTCC (sugars e5 d10 e5, PS)",46%,,,
"AGATGCCACTTCATCAAGGC (sugars e5 d10 e5, PS)",24%,,,
"AGCAGGTTGTGTGTCTTCAC (sugars e5 d10 e5, PS)",55% and 77%,0%,,
"AGCAGTCTGCCTGATTCCCT (sugars e5 d10 e5, PS)",,69% and 44%,87% and 82%,
"AGCCAGGTAAGGCCGTATGC (sugars e2 d13 e5, PS)",67%,,,
"AGCCTGGACAAGTCCTGCCC (sugars e2 d13 e5, PS)",75%,,,
"AGCCTGGACAAGTCCTGCCC (sugars e5 d10 e5, PS)",79%,,,79% and 92% and 91%
"AGGAAAACTTAGGCATGCTT (sugars e5 d10 e5, PS)",,58%,84%,
"AGGAAGGACAGGACCCACTG (sugars e5 d10 e5, PS)",38%,,,
"AGGACACCTGGAGCTGCGGC (sugars e5 d10 e5, PS)",,42%,84%,
"AGGACAGGGCAGACACACCT (sugars e5 d10 e5, PS)",44%,,,
"AGGACCCACTGGAGCACTGA (sugars e2 d13 e5, PS)",75%,,,
"AGGACCCCGGAGTAGGCGGC (sugars e5 d10 e5, PS)",52% and 76%,60%,92%,
"AGGAGCCCTCCTCGAAGATC (sugars e5 d10 e5, PS)",31%,,,
"AGGCACAGAAAAGTGAGGCT (sugars e5 d10 e5, PS)",,75%,67%,
